Assay results taken from the supplement of paper PMC10307832.

What was measured:
Assay in all cases: relative viability (nuclei count vs DMSO), 5 days (fraction); higher = more cells survive
Crenolanib + Alpelisib = compound: CC1(COc2ccc3c(c2)ncn3-c2ccc3cccc(N4CCC(N)CC4)c3n2)COC1 [Crenolanib] + Cc1nc(NC(=O)N2CCC[C@H]2C(N)=O)sc1-c1ccnc(C(C)(C)C(F)(F)F)c1 [Alpelisib] (partner 2 µM)
How it was run: (§1)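 Relative viability is defined as nuclei in treated wells over nuclei in vehicle wells. Duplicate plates were run and medians reported. Lung cancer cell lines in 1536-well plates were dosed by pin tool one day after seeding, with one drug or with a fixed anchor-drug dose plus five library-drug doses (not always all listed) in √10 steps, and nuclei were counted after 5 days.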

Tivantinib + Foretinib = compound: O=C1NC(=O)[C@@H](c2cn3c4c(cccc24)CCC3)[C@@H]1c1c[nH]c2ccccc12 [Tivantinib] + COc1cc2c(Oc3ccc(NC(=O)C4(C(=O)Nc5ccc(F)cc5)CC4)cc3F)ccnc2cc1OCCCN1CCOCC1 [Foretinib] (partner 0.25 µM)
How it was run: as §1

Tivantinib + Phenformin = compound: O=C1NC(=O)[C@@H](c2cn3c4c(cccc24)CCC3)[C@@H]1c1c[nH]c2ccccc12 [Tivantinib] + N=C(N)NC(=N)NCCc1ccccc1 [Phenformin] (partner 250 µM)
How it was run: as §1

Crenolanib + Dasatinib = compound: CC1(COc2ccc3c(c2)ncn3-c2ccc3cccc(N4CCC(N)CC4)c3n2)COC1 [Crenolanib] + Cc1nc(Nc2ncc(C(=O)Nc3c(C)cccc3Cl)s2)cc(N2CCN(CCO)CC2)n1 [Dasatinib] (partner 0.075 µM)
How it was run: as §1

Cell Line | relative viability (Crenolanib + Alpelisib; first compound 0.01 µM) | relative viability (Crenolanib + Alpelisib; first compound 0.03162 µM) | relative viability (Crenolanib + Alpelisib; first compound 0.1 µM) | relative viability (Crenolanib + Alpelisib; first compound 0.3162 µM) | relative viability (Crenolanib + Alpelisib; first compound 1 µM) | relative viability (Tivantinib + Foretinib; first compound 0.01 µM) | relative viability (Tivantinib + Foretinib; first compound 0.03162 µM) | relative viability (Tivantinib + Foretinib; first compound 0.1 µM) | relative viability (Tivantinib + Foretinib; first compound 0.3162 µM) | relative viability (Tivantinib + Phenformin; first compound 0.01 µM) | relative viability (Tivantinib + Phenformin; first compound 0.03162 µM) | relative viability (Tivantinib + Phenformin; first compound 0.1 µM) | relative viability (Tivantinib + Phenformin; first compound 0.3162 µM) | relative viability (Crenolanib + Dasatinib; first compound 0.01 µM) | relative viability (Crenolanib + Dasatinib; first compound 0.03162 µM) | relative viability (Crenolanib + Dasatinib; first compound 0.3162 µM) | relative viability (Crenolanib + Dasatinib; first compound 1 µM) | relative viability (Crenolanib + Dasatinib; first compound 0.1 µM)
NCI-H2405 | 1 | 0.76 | 0.496 | 0.68 | 0.691 | 1.16 | 1.07 | 1.05 | 0.98 | 0.437 | 0.38 | 0.367 | 0.473 | 0.225 | 0.214 | 0.181 | 0.196 | –
NCI-H3122 | 0.768 | 0.81 | 0.827 | 0.78 | 0.979 | 0.947 | 0.982 | 0.909 | 0.951 | 0.369 | 0.394 | 0.359 | 0.361 | 0.862 | 0.73 | 0.963 | 0.972 | 0.782
PC-3 [JPC-3] | 1.07 | 0.982 | 0.981 | 1.02 | 1.04 | 1 | 1.12 | 1.06 | 0.904 | 0.459 | 0.494 | 0.506 | 0.355 | 0.989 | 0.974 | 1.12 | 1.06 | 0.974
PC-14 | 1.01 | 0.969 | 0.858 | 1.04 | 0.894 | 0.93 | 0.893 | 0.984 | 1.05 | 0.516 | 0.454 | 0.611 | 0.341 | 0.289 | 0.262 | 0.263 | 0.266 | 0.259
RERF-LC-KJ | 0.839 | 0.761 | 0.802 | 1.03 | 0.73 | 0.911 | 0.908 | 0.85 | 0.883 | 0.454 | 0.442 | 0.407 | 0.335 | 0.81 | 0.961 | 0.956 | 0.733 | 0.933
SK-LU-1 | 1.04 | 0.931 | 0.703 | 1.27 | 0.87 | 0.932 | 0.919 | 0.705 | 0.708 | 0.536 | 0.539 | 0.497 | 0.601 | 0.198 | 0.182 | 0.194 | 0.172 | 0.159
SK-MES-1 | 0.849 | 0.972 | 0.866 | 0.916 | 0.95 | 1.02 | 0.637 | 0.962 | 0.924 | 0.676 | 0.672 | 0.619 | 0.673 | 0.39 | 0.448 | 0.409 | 0.358 | 0.358
SW 1573 | 0.824 | 0.765 | 0.706 | 0.954 | 0.608 | 1.04 | 0.83 | 0.804 | 0.863 | 0.419 | 0.357 | 0.392 | 0.263 | 0.539 | 0.48 | 0.558 | 0.553 | 0.591
